We go through 6 compounds from patent US5075499A, “Calcium supplementation by dicalcium citrate-lactate” (Board of Regents, The University of Texas System, priority 1988, dated 1991).

The conditions of data set [1]: cited from earlier work.
For data set [2] the following is noted: cited from earlier work; for effectiveness in raising urinary citrate compared with tricalcium dicitrate: vs tricalcium dicitrate.
For data set [3] the following is noted: osteoporosis prone postmenopausal women; cited from earlier work.
The conditions of data set [4]: cited from earlier work. The source holds these as a separate data set.
The nature of data set [5]: Calcium absorption from oral tablets (increment in urinary calcium during the second two hours, Example 5). The following applies: 400 mg elemental calcium, ten normal volunteers, SD.
Protocol: Calcium absorption was measured from the increment in urinary calcium during the second two hours following the administration of the oral calcium tablets.
The calcium absorption was measured from the increment in urinary calcium during the second two hours following oral calcium load, expressed as mg calcium/dl glomerular filtrate (GF).
The nature of data set [6]: Bulk density of the dried granular composition. The data set is classed as physicochemical. The procedure: 38.4 grams of citric acid powder and 40 grams of calcium carbonate were thoroughly mixed in a large beaker. 36 grams of lactic acid, 50 weight percent solution, was slowly added with rapid stirring. 40 grams of water was then introduced slowly in small portions, each portion was added after the CO2 evolution slowed or ceased. After drying, the material was sized and found to have a bulk density greater than 1.1 g/cc. Bulk density was determined by an Archimedean method. This dense granular dicalcium citrate-lactate was subjected to compression tableting to form tablets containing 10 meq (200 milligrams) of calcium, and 7.5 meq (472 milligrams) of citrate, with a size of 0.29 (7.47 millimeters) inch by 0.74 (1.9 centimeters) inch.
The dicalcium citrate-lactate tablets of the present invention were also produced on a large scale. 38.4 kilograms of citric acid powder and calcium carbonate were placed in a Colton 7 cubic ft. ribbon mixer and blended for 2 minutes. Thirty six kilograms of the lactic acid, 50 weight percent solution, were added in approximately three equal portions, 3 minutes apart with continuous mixing. Water (40 kilograms) was added in approximately four equal portions 2-3 minutes apart with continuous mixing. Mixing continued for 10 minutes. The resultant granular and lumpy material was passed through a Fitzmill, knives forward, with no screen, trayed and dried at 212° F.-221° F. (100° C.-105° C.) for three hours. The dried product was sized and its bulk density was determined to be greater than 1.1 g/cc. The sizing was done using a Fitzmill Model No. 6 with a 31262AA screen.
The procedure previously described in Example 2 was followed with the exception of calcium carbonate being replaced by calcium oxide. Dicalcium citrate-lactate having a bulk density of greater than 0.7 g/cc was produced.
The procedure previously described in Example 2 was followed with the exception of calcium carbonate being replaced by calcium hydroxide. Calcium citrate lactate having a bulk density of greater than 0.8 g/cc was produced.

On to `O=C(O)[C@H](O)[C@@H](O)[C@H](O)[C@H](O)CO` [calcium gluconate], for which the “aqueous solubility” value in data set [1] was “high aqueous solubility”. Also, in data set [2], the “effectiveness in raising urinary citrate compared with tricalcium dicitrate” value is “not as effective as tricalcium dicitrate”.

With `CC(O)C(=O)O` (stereo not drawn) [calcium lactate], in data set [2], the “effectiveness in raising urinary citrate compared with tricalcium dicitrate” value is given as “not as effective as tricalcium dicitrate”.

As for `O=C(O)O` [calcium carbonate], the “prevention of further bone losses” value in data set [3] is “to a lesser extent”.

For estrogen, in data set [3], the “prevention of further bone losses” value was “further bone losses in osteoporosis prone postmenopausal women may be prevented”.

`O=C(O)CC(O)(CC(=O)O)C(=O)O` [tricalcium dicitrate]: in data set [4], the “precipitation out of simulated duodenal juice” value was “did not precipitate out of simulated duodenal juice”. Besides, the “urinary citrate” value in data set [2] (Harvey, Zobitz and Pak 1985) is reported as “increased urinary citrate”. The “calcium absorption (increment in urinary calcium)” value in data set [5] is on record as 0.044±0.051 mg/dl GF.

Take `CC(O)C(=O)[O-].O=C([O-])CC(O)(CC(=O)[O-])C(=O)[O-].[Ca+2].[Ca+2]` [dicalcium citrate-lactate]: the bulk density entry in data set [6] (from calcium carbonate, large batch (Example 2)) is listed as “greater than 1.1 g/cc”; in data set [6] (from calcium carbonate, small batch (Example 1), Archimedean method), “greater than 1.1 g/cc”; in data set [6] (from calcium hydroxide, large batch (Example 4)), “greater than 0.8 g/cc”; in data set [6] (from calcium oxide, large batch (Example 3)), “greater than 0.7 g/cc”.
